PMC6891695, “Evaluation of Antifouling Potential and Ecotoxicity of Secondary Metabolites Derived from Red Algae of the Genus Laurencia” (Marine Drugs, 2019)

Columns and labels:
A. salina nauplii = experiment: Artemia salina toxicity assay; type: in vivo; details: 24 and 48 h
How it was run: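 Instar I nauplii, hatched over 24 h in artificial seawater at 25 °C, exposed ten per well to compounds added in methanol for 48 h in the dark at 25 °C. Mortality scored as no appendage movement within 10 s; IC50/EC50 from normalized-response curve fits, three experiments with four replicates.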

A. amphitrite cyprids = experiment: Substrate exploration analysis: SIPC deposition by cyprids (anti-SIPC Western blot on wells); type: in vivo, Amphibalanus amphitrite; details: for effect on deposition of SIPC protein on the surface of the bioassay plates: concentrations at the EC50 values, p > 0.05; for effect on deposition of SIPC protein on the surface of the bioassay plates / effect on adjusted integrated density of anti-SIPC immunoreactive signals: 24 h; for effect on adjusted integrated density of anti-SIPC immunoreactive signals: indicated concentrations, unpaired two-tailed t-test with Welch's correction
Method: To test the substrate exploratory behaviour of A. amphitrite cyprids in the presence of selected metabolites, settlement bioassays were conducted by adding 10 cyprids into individual wells of a 24-well polystyrene sterile microplate (Orange Scientific, Braine l’Alleud, Belgium) containing 2 mL of ASW (25‰). These experiments were repeated twice with four replicates per experiment. Plates were covered and sealed with Parafilm® to avoid evaporation and incubated at 25 °C away from any light source for 24 h. Then, the 2 mL of ASW was aspirated from each well and all settled and non-settled cyprids were counted and removed. Wells were then blocked by incubation with 5% BSA in TBST (25 mM Tris-HCl, pH 7.5, 150 mM NaCl, 0.1% Tween 20) for 1 h at room temperature. Wells were then incubated for 1 h at room temperature with the mouse anti-SIPC monoclonal antibody at 1:100 dilution of the cloned cell line culture supernatant in TBST with 5% BSA, washed with TBST (3 × 5 min) and incubated with an HRP-conjugated anti-mouse antibody (1:1000, Cell Signaling Technology, Danvers, MA, USA) for 1 h at room temperature. Wells were then washed with TBST (3 × 5 min) and immunostaining was detected using the 20 × LumiGLO® chemiluminescence kit (Cell Signaling Technology, Danvers, MA, USA) in a Bio-Rad ChemiDoc XRS + Gel Photo Documentation System. To measure the relative intensity of immunoreactive spots on this format of Western blots, images were analyzed with ImageJ 1.52k (NIH, Bethesda, MD, USA), and the adjusted integrated density of the signals was calculated using the formula: Adjusted integrated density (IntDen) = IntDen of experimental region of interest (ROI)—(mean of background ROI × area of experimental ROI). Data were exported and statistically analyzed with GraphPad Prism v.6 using unpaired, two-tailed t-tests at p = 0.05, with Welch’s correction.

Structure (SMILES)	toxicity against A. salina nauplii (in words) (A. salina nauplii)	effect on deposition of SIPC by the cyprids relative to control (ASW) (A. amphitrite cyprids; 10 μM)	effect on deposition of SIPC protein on the surface of the bioassay plates (A. amphitrite cyprids)	effect on adjusted integrated density of anti-SIPC immunoreactive signals (A. amphitrite cyprids)
CC(C)[C@@H]1CC=C[C@H]2[C@H]3[C@](C)(CC[C@]12CBr)[C@@H](Br)CC[C@@]3(C)O [Bromosphaerol, reference compound]	did not show any toxicity	did not affect deposition of SIPC	no statistically significant effect	none of the two tested compounds (p > 0.05) affected
CC1=C2CC[C@@](C)(Cl)[C@@H](Br)C[C@]2(C)[C@@H](C)[C@@H](Br)[C@@H]1O [Compound 9, perforenol]	–	–	no statistically significant effect	none of the two tested compounds (p > 0.05) affected
